Results: patent US10758534B2 (Vertex Pharmaceuticals Incorporated, priority 2014, dated 2020)

Molecular target: T1, F508del (Homo sapiens, UniProt P13569, DEL508-508)
T1 construct: expressed in transfected cells
Test: Protocol 1: membrane potential optical assay (FLIPR III, voltage sensing dye), identification of potentiator compounds
Format: cell-based
Details: Table 3, compounds of Table 1
Method in brief: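 Read-out: change in voltage-sensing dye fluorescence (FLIPR III) as a measure of F508del conductance. Temperature-corrected (27° C, 24 hrs) NIH 3T3 cells expressing F508del are pretreated with potentiators, dye-loaded, then stimulated with forskolin under a chloride ion gradient using chloride-free gluconate bath.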

T1 sequence (P13569 with tags, fused parts or gaps DEL508-508): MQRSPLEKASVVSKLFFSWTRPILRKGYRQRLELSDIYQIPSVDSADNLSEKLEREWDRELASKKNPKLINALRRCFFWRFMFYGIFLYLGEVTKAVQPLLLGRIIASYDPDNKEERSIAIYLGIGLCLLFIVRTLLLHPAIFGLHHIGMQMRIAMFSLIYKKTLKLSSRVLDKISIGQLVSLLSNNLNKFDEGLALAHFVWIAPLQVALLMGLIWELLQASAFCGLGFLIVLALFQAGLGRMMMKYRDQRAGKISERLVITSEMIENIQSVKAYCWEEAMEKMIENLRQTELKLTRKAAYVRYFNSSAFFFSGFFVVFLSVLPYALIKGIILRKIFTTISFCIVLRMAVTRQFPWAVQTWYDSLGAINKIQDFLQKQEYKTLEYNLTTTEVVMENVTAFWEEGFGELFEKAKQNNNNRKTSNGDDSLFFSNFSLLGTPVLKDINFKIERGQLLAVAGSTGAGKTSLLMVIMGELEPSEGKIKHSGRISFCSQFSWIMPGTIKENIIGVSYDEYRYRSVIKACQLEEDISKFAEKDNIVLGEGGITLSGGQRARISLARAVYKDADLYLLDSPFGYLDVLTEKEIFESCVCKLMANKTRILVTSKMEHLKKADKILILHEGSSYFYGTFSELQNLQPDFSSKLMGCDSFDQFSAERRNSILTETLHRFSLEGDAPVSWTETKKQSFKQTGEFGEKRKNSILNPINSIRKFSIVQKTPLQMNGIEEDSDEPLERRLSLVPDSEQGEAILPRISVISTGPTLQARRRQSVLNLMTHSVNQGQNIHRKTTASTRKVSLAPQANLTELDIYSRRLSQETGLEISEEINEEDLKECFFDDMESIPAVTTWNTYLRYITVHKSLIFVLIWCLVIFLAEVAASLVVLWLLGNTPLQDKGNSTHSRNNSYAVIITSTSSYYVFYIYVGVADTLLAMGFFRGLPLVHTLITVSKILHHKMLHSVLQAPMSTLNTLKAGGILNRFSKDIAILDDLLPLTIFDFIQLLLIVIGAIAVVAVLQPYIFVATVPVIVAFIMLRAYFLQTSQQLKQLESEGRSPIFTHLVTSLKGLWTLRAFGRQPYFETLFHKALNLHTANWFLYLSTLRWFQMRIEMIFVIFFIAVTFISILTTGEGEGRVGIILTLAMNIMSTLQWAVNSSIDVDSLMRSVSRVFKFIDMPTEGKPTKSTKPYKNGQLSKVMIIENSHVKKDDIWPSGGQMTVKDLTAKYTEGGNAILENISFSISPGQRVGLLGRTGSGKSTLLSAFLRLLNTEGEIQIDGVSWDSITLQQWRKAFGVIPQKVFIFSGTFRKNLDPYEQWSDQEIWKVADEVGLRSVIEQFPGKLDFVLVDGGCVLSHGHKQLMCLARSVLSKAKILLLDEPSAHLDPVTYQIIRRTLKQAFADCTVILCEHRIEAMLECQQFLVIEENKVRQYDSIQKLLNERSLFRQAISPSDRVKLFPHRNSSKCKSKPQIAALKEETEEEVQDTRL

EC30	Compound
+++ (“+++” means <3 uM)	CC(C)Oc1ccc(-c2ccc(C(=O)NS(=O)(=O)c3cccc(N)n3)c(N3CCCC(C4CC4)C3)n2)cn1 (centres unmarked) [Compound 1132, N-[(6-amino-2-pyridyl)sulfonyl]-2-(3-cyclopropyl-1-piperidyl)-6-(6-isopropoxy-3-pyridyl)pyridine-3-carboxamide]
+++ (“+++” means <3 uM)	CCOc1cccc(-c2ccc(C(=O)NS(=O)(=O)c3cccc(N)n3)c(Oc3c(C)cc(C)cc3C)n2)n1 [Compound 1133, N-[(6-amino-2-pyridyl)sulfonyl]-6-(6-ethoxy-2-pyridyl)-2-(2,4,6-trimethylphenoxy)pyridine-3-carboxamide]
+++ (“+++” means <3 uM)	CC(C)Oc1ccc(-c2ccc(C(=O)NS(=O)(=O)c3cccc(N)n3)c(N3CCC(C)(C)CC3)n2)cn1 [Compound 1134, N-[(6-amino-2-pyridyl)sulfonyl]-2-(4,4-dimethyl-1-piperidyl)-6-(6-isopropoxy-3-pyridyl)pyridine-3-carboxamide]
+++ (“+++” means <3 uM)	CC(C)CCOc1cccc(-c2ccc(C(=O)NS(=O)(=O)c3cccc(N)n3)c(N3CC(C)CC3(C)C)n2)n1 (centres unmarked) [Compound 1135, N-[(6-amino-2-pyridyl)sulfonyl]-6-(6-isopentyloxy-2-pyridyl)-2-(2,2,4-trimethylpyrrolidin-1-yl)pyridine-3-carboxamide]
+++ (“+++” means <3 uM)	CC(C)Oc1ccc(-c2ccc(C(=O)NS(=O)(=O)c3cccc(N)n3)c(N3C[C@@H](C)C[C@H](C)C3)n2)cn1 [Compound 1136, N-[(6-amino-2-pyridyl)sulfonyl]-2-[(3S,5S)-3,5-dimethyl-1-piperidyl]-6-(6-isopropoxy-3-pyridyl)pyridine-3-carboxamide]
++ (“++” means between 3 uM and 10 uM)	Cc1cc(C)c(Oc2nc(C)ccc2C(=O)NS(=O)(=O)c2cccc(N)n2)c(C)c1 [Compound 1137, N-[(6-amino-2-pyridyl)sulfonyl]-6-methyl-2-(2,4,6-trimethylphenoxy)pyridine-3-carboxamide]
+++ (“+++” means <3 uM)	Cc1cc(C)c(Oc2nc(-c3cc(F)cc(OC(C)C)c3)ccc2C(=O)NS(=O)(=O)c2cccc(N)n2)c(C)c1 [Compound 1138, N-[(6-amino-2-pyridyl)sulfonyl]-6-(3-fluoro-5-isopropoxy-phenyl)-2-(2,4,6-trimethylphenoxy)pyridine-3-carboxamide]
+++ (“+++” means <3 uM)	Cc1cc(C)c(Oc2nc(-c3cnc(N(C)C)nc3)ccc2C(=O)NS(=O)(=O)c2cccc(N)n2)c(C)c1 [Compound 1139, N-[(6-amino-2-pyridyl)sulfonyl]-6-[2-(dimethylamino)pyrimidin-5-yl]-2-(2,4,6-trimethylphenoxy)pyridine-3-carboxamide]
+++ (“+++” means <3 uM)	COc1ccc(-c2ccc(C(=O)NS(=O)(=O)c3cccc(N)n3)c(Oc3c(C)cc(C)cc3C)n2)cc1F [Compound 1140, N-[(6-amino-2-pyridyl)sulfonyl]-6-(3-fluoro-4-methoxy-phenyl)-2-(2,4,6-trimethylphenoxy)pyridine-3-carboxamide]
++ (“++” means between 3 uM and 10 uM)	COc1cccc(-c2ccc(C(=O)NS(=O)(=O)c3cccc(N)n3)c(N3[C@H](C)CC[C@@H]3C)n2)n1 [Compound 1141, N-[(6-amino-2-pyridyl)sulfonyl]-2-[(2S,5R)-2,5-dimethylpyrrolidin-1-yl]-6-(6-methoxy-2-pyridyl)pyridine-3-carboxamide]
++ (“++” means between 3 uM and 10 uM)	CCCOc1cccc(-c2ccc(C(=O)NS(=O)(=O)c3ccc[nH]c3=O)c(Oc3c(C)cc(C)cc3C)n2)c1 [Compound 1143, N-[(2-oxo-1H-pyridin-3-yl)sulfonyl]-6-(3-propoxyphenyl)-2-(2,4,6-trimethylphenoxy)pyridine-3-carboxamide]
+++ (“+++” means <3 uM)	CC(C)Oc1ccc(-c2ccc(C(=O)NS(=O)(=O)c3cccc(N)n3)c(N3C[C@H](C)C[C@H](C)C3)n2)cn1 [Compound 1145, N-[(6-amino-2-pyridyl)sulfonyl]-2-[(3R,5S)-3,5-dimethyl-1-piperidyl]-6-(6-isopropoxy-3-pyridyl)pyridine-3-carboxamide]
++ (“++” means between 3 uM and 10 uM)	COc1ccc(-c2ccc(C(=O)NS(=O)(=O)c3cccc(N)n3)c(Oc3c(C)cc(C)cc3C)n2)cc1OC [Compound 1146, N-[(6-amino-2-pyridyl)sulfonyl]-6-(3,4-dimethoxyphenyl)-2-(2,4,6-trimethylphenoxy)pyridine-3-carboxamide]
++ (“++” means between 3 uM and 10 uM)	Cc1cc(C)c(Oc2nc(-c3ccc(C(C)(C)O)cc3)ccc2C(=O)NS(=O)(=O)c2cccc(N)n2)c(C)c1 [Compound 1147, N-[(6-amino-2-pyridyl)sulfonyl]-6-[4-(1-hydroxy-1-methyl-ethyl)phenyl]-2-(2,4,6-trimethylphenoxy)pyridine-3-carboxamide]
+++ (“+++” means <3 uM)	Cc1cc(C)c(Oc2nc(C(C)(C)C)ccc2C(=O)NS(=O)(=O)c2cnc(N)s2)c(C)c1 [Compound 1148, N-(2-aminothiazol-5-yl)sulfonyl-6-tert-butyl-2-(2,4,6-trimethylphenoxy)pyridine-3-carboxamide]

Second part, the compound before the results:

Compound	EC30
CC(C)COc1cc(F)cc(-c2ccc(C(=O)NS(=O)(=O)c3cccc(N)n3)c(N3CCC(C)C3(C)C)n2)c1 (centres unmarked) [Compound 1121, N-[(6-amino-2-pyridyl)sulfonyl]-6-(3-fluoro-5-isobutoxy-phenyl)-2-(2,2,3-trimethylpyrrolidin-1-yl)pyridine-3-carboxamide]	+++ (“+++” means <3 uM)
Cc1cc(C)c(Oc2nc(-c3ccccc3)ccc2C(=O)NS(=O)(=O)c2cccc(NCCN(C)C)n2)c(C)c1 [Compound 1122, N-[[6-(2-dimethylaminoethylamino)-2-pyridyl]sulfonyl]-6-phenyl-2-(2,4,6-trimethylphenoxy)pyridine-3-carboxamide]	++ (“++” means between 3 uM and 10 uM)
CC(C)Oc1cc(F)cc(-c2ccc(C(=O)NS(=O)(=O)c3cccc(N)n3)c(N3[C@H](C)CC[C@@H]3C)n2)c1 [Compound 1123, N-[(6-amino-2-pyridyl)sulfonyl]-2-[(2S,5R)-2,5-dimethylpyrrolidin-1-yl]-6-(3-fluoro-5-isopropoxy-phenyl)pyridine-3-carboxamide]	+++ (“+++” means <3 uM)
COc1ccccc1S(=O)(=O)NC(=O)c1ccc(C(C)(C)C)nc1-c1ccc(C)cc1 [Compound 1124, 6-tert-butyl-N-(2-methoxyphenyl)sulfonyl-2-(p-tolyl)pyridine-3-carboxamide]	+++ (“+++” means <3 uM)
C[C@@H]1CC[C@H](C)N1c1nc(-c2ccc(OC3CC3)nc2)ccc1C(=O)NS(=O)(=O)c1cccc(N)n1 [Compound 1125, N-[(6-amino-2-pyridyl)sulfonyl]-6-[6-(cyclopropoxy)-3-pyridyl]-2-[(2S,5R)-2,5-dimethylpyrrolidin-1-yl]pyridine-3-carboxamide]	++ (“++” means between 3 uM and 10 uM)
Cc1cc(C)c(Oc2nc(-c3cnc(NC4CC4)nc3)ccc2C(=O)NS(=O)(=O)c2cccc(N)n2)c(C)c1 [Compound 1126, N-[(6-amino-2-pyridyl)sulfonyl]-6-[2-(cyclopropylamino)pyrimidin-5-yl]-2-(2,4,6-trimethylphenoxy)pyridine-3-carboxamide]	+ (“+” means greater than 10 uM)
CC(C)COc1cc(F)cc(-c2ccc(C(=O)NS(=O)(=O)c3ccn[nH]3)c(N3CCC4(CC3)CC4)n2)c1 [Compound 1127, 2-(6-azaspiro[2.5]octan-6-yl)-6-(3-fluoro-5-isobutoxy-phenyl)-N-(1H-pyrazol-5-ylsulfonyl)pyridine-3-carboxamide]	+++ (“+++” means <3 uM)
CCNc1ccc(C(=O)NS(=O)(=O)c2cccc(N)n2)c(Oc2c(C)cc(C)cc2C)n1 [Compound 1128, N-[(6-amino-2-pyridyl)sulfonyl]-6-(ethylamino)-2-(2,4,6-trimethylphenoxy)pyridine-3-carboxamide]	++ (“++” means between 3 uM and 10 uM)
Cc1ccc(-c2ccc(C(=O)NS(=O)(=O)c3ccc[nH]c3=O)c(Oc3ccc(C)cc3C)n2)cc1 [Compound 1129, 2-(2,4-dimethylphenoxy)-N-[(2-oxo-1H-pyridin-3-yl)sulfonyl]-6-(p-tolyl)pyridine-3-carboxamide]	++ (“++” means between 3 uM and 10 uM)
CCOc1ncc(-c2ccc(C(=O)NS(=O)(=O)c3cccc(N)n3)c(Oc3c(C)cc(C)cc3C)n2)cn1 [Compound 1130, N-[(6-amino-2-pyridyl)sulfonyl]-6-(2-ethoxypyrimidin-5-yl)-2-(2,4,6-trimethylphenoxy)pyridine-3-carboxamide]	++ (“++” means between 3 uM and 10 uM)
Cc1cc(C)c(Oc2nc(C3CCCCC3)ccc2C(=O)NS(=O)(=O)c2cccc(N)n2)c(C)c1 [Compound 1131, N-[(6-amino-2-pyridyl)sulfonyl]-6-cyclohexyl-2-(2,4,6-trimethylphenoxy)pyridine-3-carboxamide]	+++ (“+++” means <3 uM)
CC(C)COc1cc(F)cc(-c2ccc(C(=O)NS(=O)(=O)c3ccn[nH]3)c(N3CCCC3C)n2)c1 (centres unmarked) [Compound 1142, 6-(3-fluoro-5-isobutoxy-phenyl)-2-(2-methylpyrrolidin-1-yl)-N-(1H-pyrazol-5-ylsulfonyl)pyridine-3-carboxamide]	++ (“++” means between 3 uM and 10 uM)
CC(C)COc1cc(F)cc(-c2ccc(C(=O)NS(=O)(=O)c3cccc(N)n3)c(N3CCC(C)(C)[C@@H]3C)n2)c1 [Compound 1144, N-[(6-amino-2-pyridyl)sulfonyl]-6-(3-fluoro-5-isobutoxy-phenyl)-2-[(2S)-2,3,3-trimethylpyrrolidin-1-yl]pyridine-3-carboxamide]	+++ (“+++” means <3 uM)
COC[C@H]1CCCN1c1nc(-c2cc(F)cc(OCC(C)C)c2)ccc1C(=O)NS(=O)(=O)c1cccc(N)n1 [Compound 1149, N-[(6-amino-2-pyridyl)sulfonyl]-6-(3-fluoro-5-isobutoxy-phenyl)-2-[(2R)-2-(methoxymethyl)pyrrolidin-1-yl]pyridine-3-carboxamide]	+++ (“+++” means <3 uM)
